Measurements: patent US9326973B2, “Hepatitis C virus inhibitors” (priority 2012, dated 2016)

system: HCV replicon, genotype-1a variant with glutamine 30 changed to glutamate in the NS5A protein; test: microbe, parasite or virus in culture; assay type: cell-based, HCV genotype 1a; conditions: HCV replicon genotype 1a Q30E (Q→E) variant; test compound titrated with an NS5A-targeting compound (BMS-790052 fixed at 200 nM); ranking of synergist activity
Outline: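 Synergy was assessed by combining several fixed amounts of an NS5A-targeting compound with a titration of the second compound of interest.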

SMILES	Fold-Synergistic 1a (Q30E)
CC(C)[C@H](NC(=O)C(C)(C)OCC(F)F)c1nc(-c2ccc(-c3ccc(-c4c[nH]c([C@@H](NC(=O)C(C)(C)OCC(F)F)C(C)C)n4)c(F)c3)cc2)c[nH]1 [Compound N-91]	>100 fold
CC(C)(C)[C@H](NC(=O)C(F)(F)C1(O)CCOCC1)c1nc(-c2ccc(-c3ccc(-c4c[nH]c([C@@H](NC(=O)C(F)(F)C5(O)CCOCC5)C(C)(C)C)n4)cc3)cc2)c[nH]1 [Compound P-163]	>100 fold
CC(C)(C)[C@H](NC(=O)C1(NCC(F)(F)F)CC1)c1nc(-c2ccc(-c3ccc(-c4c[nH]c([C@@H](NC(=O)C5(NCC(F)(F)F)CC5)C(C)(C)C)n4)cc3)cc2)c[nH]1 [Compound L-96]	>100 fold
COC(=O)N[C@H](C(=O)N[C@@H](CC(C)C)c1nc(-c2ccc(-c3ccc(-c4c[nH]c([C@H](CC(C)C)NC(=O)[C@@H](NC(=O)OC)C(C)C)n4)cc3)cc2)c[nH]1)C(C)C [Compound N-30]	<10 fold
CC(C)(C)[C@H](NC(=O)C1(n2cncn2)CC1)c1nc(-c2ccc(-c3ccc(-c4c[nH]c([C@@H](NC(=O)C5(n6cncn6)CC5)C(C)(C)C)n4)cc3)cc2)c[nH]1 [Compound L-33]	>100 fold
CC(C)CC(=O)N[C@H](c1nc(-c2ccc3cc(-c4ccc(-c5cnc([C@@H](NC(=O)CC(C)C)C(C)(C)C)[nH]5)cc4)ccc3c2)c[nH]1)C(C)(C)C [Compound N-9]	>10 fold
CCC(C)[C@H](NC(=O)[C@H](NC(=O)OC)C(C)C)c1nc(-c2ccc(-c3ccc(-c4c[nH]c([C@@H](NC(=O)[C@H](NC(=O)OC)C(C)C)C(C)CC)n4)cc3)cc2)c[nH]1 (stereo partly drawn) [Compound N-32]	>10 fold
O=C(c1cc2ccccc2o1)N1CCC[C@H]1c1ncc(-c2ccc(-c3ccc(-c4cnc([C@@H]5CCCN5C(=O)c5cc6ccccc6o5)[nH]4)cc3)cc2)[nH]1 [Compound S-122]	>10 fold
O=C(c1ccc2c(c1)OCO2)N1CCC[C@H]1c1ncc(-c2ccc(-c3ccc(-c4cnc([C@@H]5CCCN5C(=O)c5ccc6c(c5)OCO6)[nH]4)cc3)cc2)[nH]1 [Compound S-121]	<10 fold
COc1ccc(C2(C(=O)N3CCC[C@H]3c3ncc(-c4ccc(-c5ccc(-c6cnc([C@@H]7CCCN7C(=O)C7(c8ccc(OC)cc8)CCCC7)[nH]6)cc5)cc4)[nH]3)CCCC2)cc1 [Compound S-158]	<10 fold
Cc1cc(C(=O)N2CCC[C@H]2c2ncc(-c3ccc(-c4ccc(-c5cnc([C@@H]6CCCN6C(=O)c6cc(C)nc(Cl)c6)[nH]5)cc4)cc3)[nH]2)cc(Cl)n1 [Compound S-131]	>10 fold
CC(C)[C@H](NC(=O)C1CC2(C1)OCCO2)c1nc(-c2ccc(-c3ccc(-c4c[nH]c([C@@H](NC(=O)C5CC6(C5)OCCO6)C(C)C)n4)cc3)cc2)c[nH]1 (stereo partly drawn) [Compound W-176]	>100 fold
CC(C)(C)[C@H](NC(=O)C1(CO)CCCCO1)c1nc(-c2ccc(-c3ccc(-c4c[nH]c([C@@H](NC(=O)C5(CO)CCCCO5)C(C)(C)C)n4)cc3)cc2)c[nH]1 (stereo partly drawn) [Compound P-177]	>100 fold
CC(C)(C)[C@H](NC(=O)CC1CC(F)(F)C1)c1nc(-c2ccc(-c3ccc(-c4c[nH]c([C@@H](NC(=O)CC5CC(F)(F)C5)C(C)(C)C)n4)cc3)cc2)c[nH]1 [Compound N-120]	>100 fold
CC(C)[C@H](NC(=O)C(C)(C)C)c1nc(-c2ccc(-c3ccc(-c4c[nH]c([C@@H](NC(=O)C(C)(C)C)C(C)C)n4)cc3F)cc2)c[nH]1 [Compound N-100]	>100 fold
CC(C)[C@H](NC(=O)c1cc(Cl)ccc1F)c1nc(-c2ccc3c(c2)CCc2cc(-c4c[nH]c([C@@H](NC(=O)c5cc(Cl)ccc5F)C(C)C)n4)ccc2-3)c[nH]1 [Compound N-76]	>100 fold
CC(C)(C)OC(=O)N[C@]1(C(=O)N[C@H](c2nc(-c3ccc(-c4ccc(-c5c[nH]c([C@@H](NC(=O)[C@@]6(NC(=O)OC(C)(C)C)C[C@H]6c6ccccc6)C(C)(C)C)n5)cc4)cc3)c[nH]2)C(C)(C)C)C[C@H]1c1ccccc1 [Compound W-8]	>100 fold
COc1ccc2c(C(=O)N3CCC[C@H]3c3ncc(-c4ccc(-c5ccc(-c6cnc([C@@H]7CCCN7C(=O)c7nc(Cl)cc8cc(OC)ccc78)[nH]6)cc5)cc4)[nH]3)nc(Cl)cc2c1 [Compound S-204]	>100 fold
CC(=O)N1CCC(C(=O)N[C@H](c2nc(-c3ccc(-c4ccc(-c5c[nH]c([C@@H](NC(=O)C6CCN(C(C)=O)CC6)C(C)(C)C)n5)cc4)cc3)c[nH]2)C(C)(C)C)CC1 [Compound S-297]	>10 fold
CC(C)(C)OC(=O)C[C@H](C(=O)N[C@H](c1nc(-c2ccc(-c3ccc(-c4c[nH]c([C@@H](NC(=O)[C@@H](CC(=O)OC(C)(C)C)C5CCCC5)C(C)(C)C)n4)cc3)cc2)c[nH]1)C(C)(C)C)C1CCCC1 [Compound S-272]	>100 fold
CC(C)(C(=O)N[C@H](c1nc(-c2ccc(-c3ccc(-c4c[nH]c([C@@H](NC(=O)C(C)(C)C(=O)NC56CC(C5)C6)C(C)(C)C)n4)cc3)cc2)c[nH]1)C(C)(C)C)C(=O)NC12CC(C1)C2 [Compound W-155]	>100 fold
CC(C)(C)OC(=O)N[C@]1(C(=O)N[C@H](c2nc(-c3ccc(-c4ccc(-c5c[nH]c([C@@H](NC(=O)[C@@]6(NC(=O)OC(C)(C)C)C[C@@H]6c6ccccc6)C(C)(C)C)n5)cc4)cc3)c[nH]2)C(C)(C)C)C[C@@H]1c1ccccc1 [Compound W-2]	>100 fold
Cc1ccoc1C(=O)N1CCC[C@H]1c1ncc(-c2ccc(-c3ccc(-c4cnc([C@@H]5CCCN5C(=O)c5occc5C)[nH]4)cc3)cc2)[nH]1 [Compound S-189]	>10 fold
O=C(CCC1CCCC1)N1CCC[C@H]1c1ncc(-c2ccc(-c3ccc(-c4cnc([C@@H]5CCCN5C(=O)CCC5CCCC5)[nH]4)cc3)cc2)[nH]1 [Compound S-166]	>10 fold
CC1(C(=O)N[C@H](c2nc(-c3ccc(-c4ccc(-c5c[nH]c([C@@H](NC(=O)C6(C)OCCCO6)C(C)(C)C)n5)cc4)cc3)c[nH]2)C(C)(C)C)OCCCO1 [Compound L-83]	>100 fold
COc1cc2ccccc2c(C(=O)N2CCCC2c2ncc(-c3ccc(-c4ccc(-c5cnc(C(NC(=O)C(C)(C)C)C(C)C)[nH]5)cc4)cc3)[nH]2)n1 (stereo not drawn) [Compound Y-13]	>100 fold
O=C(c1ccccc1Oc1ccccc1)N1CCC[C@H]1c1ncc(-c2ccc(-c3ccc(-c4cnc([C@@H]5CCCN5C(=O)c5ccccc5Oc5ccccc5)[nH]4)cc3)cc2)[nH]1 [Compound S-114]	<10 fold
CC(C)(C)OC(=O)N[C@H]1CCC[C@@H]1C(=O)N[C@H](c1nc(-c2ccc(-c3ccc(-c4c[nH]c([C@@H](NC(=O)[C@H]5CCC[C@@H]5NC(=O)OC(C)(C)C)C(C)(C)C)n4)cc3)cc2)c[nH]1)C(C)(C)C [Compound W-9]	>100 fold
CC(C)(C)[C@H](NC(=O)C1CCOC1)c1nc(-c2ccc(-c3ccc(-c4c[nH]c([C@@H](NC(=O)C5CCOC5)C(C)(C)C)n4)cc3)cc2)c[nH]1 (stereo partly drawn) [Compound W-129]	>10 fold
CC(C)CC(=O)N[C@@H](Cc1cccc2ccccc12)c1nc(-c2ccc(-c3ccc(-c4c[nH]c([C@H](Cc5cccc6ccccc56)NC(=O)CC(C)C)n4)cc3)cc2)c[nH]1 [Compound P-7]	<10 fold
